Where two headings read alike, the source gives them in different places.
How the values were obtained:
[1] = tested on: dormant Mycobacterium bovis BCG; type: cell-based
[2] = tested on: dormant M. bovis BCG, expressing the luciferase gene on plasmid pSMT1; type: cell-based, Mycobacterium bovis; conditions: 7 days of anaerobiosis, then 5 days in drug free medium
[3] = tested on: dormant Mycobacterium tuberculosis (H37RV); experiment: Wayne dormancy model, CFU assay; conditions: for reduction of the dormant bacteria (CFU compared to untreated control): drug added after 14 days, cultures collected after 22 days

Structure (SMILES): COc1nc2ccc(Br)cc2cc1C(c1ccccc1)C(O)(CCN(C)C)c1ccccc1 (stereo not drawn)
- melting point: 84 °C

Structure (SMILES): COc1nc2ccc(Br)cc2cc1[C@@H](c1ccccc1)[C@@](O)(CCN(C)C)c1cccc2ccccc12 [Compound 12, (αS, βR)-6-bromo-α-[2-(dimethylamino)ethyl]-2-methoxy-α-1-naphthalenyl-β-phenyl-3-quinolineethanol]
- reduction in CFU counts compared with untreated control ([1]; 0.1 μg/ml, day 2 after anaerobiosis): ~0.5 log10
- reduction in CFU counts compared with untreated control ([1]; 0.1 μg/ml, day 5 after anaerobiosis): ~1.1 log10
- reduction in CFU counts compared with untreated control ([1]; 1 μg/ml, day 2 after anaerobiosis): ~2.3 log10
- reduction in CFU counts compared with untreated control ([1]; 1 μg/ml, day 5 after anaerobiosis): ~4.7 log10
- reduction in CFU counts compared with untreated control ([1]; 10 μg/ml, day 2 after anaerobiosis): approximately 4 log10
- reduction in CFU counts compared with untreated control ([1]; 10 μg/ml, day 5 after anaerobiosis): about 6 log10
- killing of dormant bacteria as compared to untreated control (Luciferase counts, RLU) ([2]; 0.1 μg/ml): about 0.5 log10
- killing of dormant bacteria as compared to untreated control (Luciferase counts, RLU) ([2]; 1 μg/ml): ~2 log10
- reduction in bacterial survival as compared to untreated control (Luciferase counts, RLU) ([2]; 10 μg/ml): approximately 4 log10
- reduction of the dormant bacteria (CFU compared to untreated control) ([3]; 1 μg/ml): 1.41 log10

Structure (SMILES): COc1nc2ccc(Br)cc2cc1C(c1ccc(C)cc1)C(O)(CCN(C)C)c1cccc2ccccc12 (stereo not drawn) [Compound 71]
- reduction of the dormant bacteria (CFU compared to untreated control) ([3]; 1 μg/ml): 1.55 log10
- reduction of the dormant bacteria (CFU compared to untreated control) ([3]; 10 μg/ml): more than 2 log10

Structure (SMILES): COc1nc2ccc(Br)cc2cc1C(c1ccccc1)C(O)(CCN(C)C)c1ccc2c(c1)OCO2 (stereo not drawn) [Compound 75]
- reduction of the dormant bacteria (CFU compared to untreated control) ([3]; 1 μg/ml): 0.87 log10
- reduction of the dormant bacteria (CFU compared to untreated control) ([3]; 10 μg/ml): 1.14 log10

Structure (SMILES): COc1nc2ccc(Br)cc2cc1C(c1ccccc1)C(O)(CCn1cncn1)c1cccc2ccccc12 (stereo not drawn) [Compound 172]
- reduction of the dormant bacteria (CFU compared to untreated control) ([3]; 1 μg/ml): 0.29 log10
- reduction of the dormant bacteria (CFU compared to untreated control) ([3]; 10 μg/ml): 0.98 log10

Structure (SMILES): NNC(=O)c1ccncc1 [Isoniazid, reference compound]
- effect on dormant bacteria (Luciferase counts), in words ([2]; 10 μg/ml): no effect
- effect on dormant bacteria, in words ([3]; 10 μg/ml): did not have any effect

Structure (SMILES): Cc1ncc([N+](=O)[O-])n1CCO [metronidazole, reference compound]
- reduction in bacterial survival as compared to untreated control (Luciferase counts, RLU) ([2]; 10 μg/ml): 2 log10
- effect on dormant bacteria, in words ([3]; 100 μg/ml, added at start): good efficacy
